Data published in patent US11535630B2, “Apelin receptor (APJ) agonists and uses thereof” (Research Triangle Institute, priority 2015, dated 2022).

biological target: T1, apelin receptor (APJ) (Homo sapiens, UniProt P35414); experiment: In vitro apelin agonist activity (methods of Giddings et al., Apelin-13 as positive control); type: cell-based; settings: in vitro apelin agonist activity, methods of Giddings et al., Apelin-13 as positive control; read-out: EC50 (nM) Ave
T1 sequence (P35414 1-380): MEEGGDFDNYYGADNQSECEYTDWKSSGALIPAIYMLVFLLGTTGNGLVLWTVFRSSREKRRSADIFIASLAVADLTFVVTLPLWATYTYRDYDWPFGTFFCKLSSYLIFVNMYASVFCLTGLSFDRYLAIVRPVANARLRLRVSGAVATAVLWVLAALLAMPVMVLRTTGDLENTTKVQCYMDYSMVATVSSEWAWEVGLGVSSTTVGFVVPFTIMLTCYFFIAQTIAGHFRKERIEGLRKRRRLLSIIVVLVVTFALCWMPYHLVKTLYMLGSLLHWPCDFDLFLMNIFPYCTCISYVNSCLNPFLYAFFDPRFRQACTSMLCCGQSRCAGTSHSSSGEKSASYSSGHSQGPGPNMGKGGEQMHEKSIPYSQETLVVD
Description: Characterization of the Apelin Agonist Activity of the Compounds
1:39-47, the contents of which are hereby incorporated by reference in its entirety. Using the methods described in Giddings et al. and Apelin-13 as a positive control.

SMILES	EC50
O=C(O)C[C@@H](CCN1CCCC(F)(F)C1)NC(=O)c1cc(-c2ccccc2C(F)(F)F)n(C2CCCC2)n1 [compound 579, (3R)-3-({1-cyclopentyl-5-[2-(trifluoromethyl)phenyl]-1H-pyrazol-3-yl}formamido)-5-(3,3-difluoropiperidin-1-yl)pentanoic acid]	1870 nM
O=C(O)C[C@H](CCN1CCCC(F)(F)C1)NC(=O)c1cc(-c2cnccc2Cl)n(C2CCCC2)n1 [compound 467, (3S)-3-{[5-(4-chloropyridin-3-yl)-1-cyclopentyl-1H-pyrazol-3-yl]formamido}-5-(3,3-difluoropiperidin-1-yl)pentanoic acid]	> 10000 nM
O=C(C[C@H](CCN1CCCCC1)NC(=O)c1cc(-c2ccccc2)n(C2CCCC2)n1)NC1CCC1 [compound 365, (3S)-N-cyclobutyl-3-[(1-cyclopentyl-5-phenyl-1H-pyrazol-3-yl)formamido]-5-(piperidin-1-yl)pentanamide]	> 10000 nM
Cc1cnn(CC[C@@H](CC(=O)N(C)c2nccs2)NC(=O)c2cc(-c3ccccc3C(F)(F)F)n(C3CCCC3)n2)c1 [compound 500, (3S)-3-({1-cyclopentyl-5-[2-(trifluoromethyl)phenyl]-1H-pyrazol-3-yl}formamido)-N-methyl-5-(4-methyl-1H-pyrazol-1-yl)-N-(1,3-thiazol-2-yl)pentanamide]	79 nM
O=C(O)C[C@H](CCN1CC2(CCC2(F)F)C1)NC(=O)c1cc(-c2ccccc2C(F)(F)F)n(C2CCCC2)n1 [compound 591, (3S)-3-({1-cyclopentyl-5-[2-(trifluoromethyl)phenyl]-1H-pyrazol-3-yl]formamido)-5-{5,5-difluoro-2-azaspiro[3.3]heptan-2-yl}pentanoic acid]	528 nM
O=C(N[C@@H](CCc1ccc(F)cc1)Cc1nnc(C(F)(F)F)o1)c1cc(-c2ccccc2C(F)(F)F)n(C2CCCC2)n1 [compound 475, 1-cyclopentyl-N-[(2S)-4-(4-fluorophenyl)-1-[5-(trifluoromethyl)-1,3,4-oxadiazol-2-yl]butan-2-yl]-5-[2-(trifluoromethyl)phenyl]-1H-pyrazole-3-carboxamide]	146 nM
O=C(C[C@H](COc1ccc(F)cc1)NC(=O)c1cc(-c2ccccc2C(F)(F)F)n(C2CCCC2)n1)NC1CCC1 [compound 546, (3R)-N-cyclobutyl-3-({1-cyclopentyl-5-[2-(trifluoromethyl)phenyl]-1H-pyrazol-3-yl}formamido)-4-(4-fluorophenoxy)butanamide]	114 nM
NS(=O)(=O)C[C@H](CC(=O)N1CCCC(F)(F)C1)NC(=O)c1cc(-c2ccccc2C(F)(F)F)n(C2CCCC2)n1 [compound 540, 1-cyclopentyl-N-[(2S)-4-(3,3-difluoropiperidin-1-yl)-4-oxo-1-sulfamoylbutan-2-yl]-5-[2-(trifluoromethyl)phenyl]-1H-pyrazole-3-carboxamide]	1380 nM
CS(=O)(=O)c1ccccc1-c1cc(C(=O)N[C@@H](CCN2CCCCC2)CC(=O)NC2CCC2)nn1C1CCCC1 [compound 367, (3S)-N-cyclobutyl-3-{[1-cyclopentyl-5-(2-methanesulfonylphenyl)-1H-pyrazol-3-yl]formamido}-5-(piperidin-1-yl)pentanamide]	2970 nM
COc1cccc(OC)c1-c1cc(C(=O)N[C@@H](CCN2CCCCC2)CC(=O)N(C)C2CCC2)nn1C1CCCC1 [compound 331, (3S)-N-cyclobutyl-3-{[1-cyclopentyl-5-(2,6-dimethoxyphenyl)-1H-pyrazol-3-yl]formamido}-N-methyl-5-(piperidin-1-yl)pentanamide]	353 nM
O=C(C[C@H](CCN1CCCC(F)(F)C1)NC(=O)c1cc(-c2ccccc2C(F)(F)F)n(C2CCCC2)n1)NS(=O)(=O)C(F)(F)F [compound 529, (3S)-3-({1-cyclopentyl-5-[2-(trifluoromethyl)phenyl]-1H-pyrazol-3-yl}formamido)-5-(3,3-difluoropiperidin-1-yl)-N-(trifluoromethane)sulfonylpentanamide]	134 nM
O=C(C[C@H](CCNC(=O)C1CCCC1)NC(=O)c1cc(-c2ccccc2C(F)(F)F)n(C2CCCC2)n1)NC1CCC1 [compound 536, (3S)-N-cyclobutyl-3-({1-cyclopentyl-5-[2-(trifluoromethyl)phenyl]-1H-pyrazol-3-yl}formamido)-5-(cyclopentylformamido)pentanamide]	39 nM
O=C(C[C@H](CCN1CCCC(F)(F)C1)NC(=O)c1cc(-c2ncccc2C(F)(F)F)n(C2CCCC2)n1)NC1CCC1 [compound 479, (3S)-N-cyclobutyl-3-({1-cyclopentyl-5-[3-(trifluoromethyl)pyridin-2-yl]-1H-pyrazol-3-yl}formamido)-5-(3,3-difluoropiperidin-1-yl)pentanamide]	0.86 nM
COc1cccc(OC)c1-c1cc(C(=O)N[C@@H](CCN2CCCCC2)CC(=O)N(C)c2nccs2)nn1C1CCCC1 [compound 351, (3S)-3-{[1-cyclopentyl-5-(2,6-dimethoxyphenyl)-1H-pyrazol-3-yl]formamido}-N-methyl-5-(piperidin-1-yl)-N-(1,3-thiazol-2-yl)pentanamide]	73 nM
CN(CC[C@@H](CC(=O)NC1CCC1)NC(=O)c1cc(-c2ccccc2C(F)(F)F)n(C2CCCC2)n1)C1(C)CCCC1 [compound 511, (3S)-N-cyclobutyl-3-({1-cyclopentyl-5-[2-(trifluoromethyl)phenyl]-1H-pyrazol-3-yl}formamido)-5-[methyl(1-methylcyclopentyl)amino]pentanamide]	35 nM
C[C@@H](C(=O)O)[C@H](CCN1CCCC(F)(F)C1)NC(=O)c1cc(-c2ccccc2C(F)(F)F)n(C2CCCC2)n1 [compound 597, (2R,3S)-3-({1-cyclopentyl-5-[2-(trifluoromethyl)phenyl]-1H-pyrazol-3-yl}formamido)-5-(3,3-difluoropiperidin-1-yl)-2-methylpentanoic acid]	23 nM
O=C(C[C@H](CC(=O)N1CCCC(F)(F)C1)NC(=O)c1cc(-c2ccccc2C(F)(F)F)n(C2CCCC2)n1)NC1CCC1 [compound 515, (3R)-N-cyclobutyl-3-({1-cyclopentyl-5-[2-(trifluoromethyl)phenyl]-1H-pyrazol-3-yl}formamido)-5-(3,3-difluoropiperidin-1-yl)-5-oxopentanamide]	47 nM
COc1cccc(OC)c1-c1cc(C(=O)N[C@@H](CCc2ccc(F)cc2)CC(=O)Nc2nccs2)nn1C1CCCC1 [compound 417, (3S)-3-{[1-cyclopentyl-5-(2,6-dimethoxyphenyl)-1H-pyrazol-3-yl]formamido}-5-(4-fluorophenyl)-N-(1,3-thiazol-2-yl)pentanamide]	36 nM
COc1cccc(OC)c1-c1cc(C(=O)N[C@H](CC(=O)Nc2nccs2)Cc2ccccc2)nn1C1CCCC1 [compound 402, (3S)-3-{[1-cyclopentyl-5-(2,6-dimethoxyphenyl)-1H-pyrazol-3-yl]formamido}-4-phenyl-N-(1,3-thiazol-2-yl)butanamide]	203 nM
C[C@@H](C[C@@H](CC(=O)O)NC(=O)c1cc(-c2ccccc2C(F)(F)F)n(C2CCCC2)n1)N1CCCC(F)(F)C1 [compound 576, (3S,5S)-3-({1-cyclopentyl-5-[2-(trifluoromethyl)phenyl]-1H-pyrazol-3-yl}formamido)-5-(3,3-difluoropiperidin-1-yl)hexanoic acid]	1370 nM
CCN(C(=O)c1cc(-c2c(OCC(F)(F)F)cccc2OCC(F)(F)F)n(C2CCCC2)n1)[C@@H](CCN1CCCCC1)CC(=O)NC1CCC1 [compound 342, (3S)-3-(1-{5-[2,6-bis(2,2,2-trifluoroethoxy)phenyl]-1-cyclopentyl-1H-pyrazol-3-yl}-N-ethylformamido)-N-cyclobutyl-5-(piperidin-1-yl)pentanamide]	> 10000 nM
O=C(O)C[C@H](CCN1CC(F)CC(F)C1)NC(=O)c1cc(-c2ccccc2C(F)(F)F)n(C2CCCC2)n1 (stereo partly drawn) [compound 639, (3S)-3-({1-cyclopentyl-5-[2-(trifluoromethyl)phenyl]-1H-pyrazol-3-yl}formamido)-5-(3,5-difluoropiperidin-1-yl)pentanoic acid]	40 nM
COc1cccc(OC)c1-c1cc(C(=O)N[C@@H](/C=C/c2ccccn2)CC(=O)NC2CCC2)nn1C1CCCC1 [compound 435, (3R,4E)-N-cyclobutyl-3-{[1-cyclopentyl-5-(2,6-dimethoxyphenyl)-1H-pyrazol-3-yl]formamido}-5-(pyridin-2-yl)pent-4-enamide]	9210 nM
O=C(O)C[C@H](CCN1CCCC(F)(F)C1)NC(=O)c1nc(-c2cccnc2C(F)(F)F)n(C2CCCC2)n1 [compound 525]	> 10000 nM
O=C(O)C[C@H](CCN1CC[C@@H](F)[C@@H](F)C1)NC(=O)c1cc(-c2ccccc2C(F)(F)F)n(C2CCCC2)n1 [compound 610]	43 nM
CC1(NC(=O)C[C@H](CC(=O)N2CCCCC2)NC(=O)c2cc(-c3ccccc3C(F)(F)F)n(C3CCCC3)n2)COC1 [compound 550, (3R)-3-({1-cyclopentyl-5-[2-(trifluoromethyl)phenyl]-1H-pyrazol-3-yl}formamido)-N-(3-methyloxetan-3-yl)-5-oxo-5-(piperidin-1-yl)pentanamide]	8680 nM
CCc1cc(F)ccc1-c1cc(C(=O)N[C@@H](CCN2CCCCC2)CC(=O)NC2CCC2)nn1C1CCCC1 [compound 399, (3S)-N-cyclobutyl-3-{[1-cyclopentyl-5-(2-ethyl-4-fluorophenyl)-1H-pyrazol-3-yl]formamido}-5-(piperidin-1-yl)pentanamide]	264 nM
